Results reported in patent publication US10189854B2, “Substituted pyrimidine compounds” (Grünenthal GmbH, priority 2014, dated 2019).

These compounds were tested against human PDE4B1 (Homo sapiens (Human), UniProt Q07343) (assay: cAMP HTRF assay to determine the activity of hPDE4B1). Settings: IC50 inhibition of PDE4B; human recombinant PDE4B1, cAMP HTRF assay.
Format: biochemical
Procedure: Biological Testing cAMP HTRF® Assay to Determine the Activity of hPDE4B1
The inhibiting effect of the compounds on the enzyme activity of human PDE4B1 was measured by the quantification of 5′-adenosine monophosphate (5′-AMP), which is formed from 3′,5′-cyclic adenosine monophosphate (cAMP). Human recombinant enzyme, expressed in Sf9 cells, and the HTRF (homogeneous time-resolved fluorescence) detection method were used in the assay.
The test compound or water (control) was mixed with the human recombinant PDE4B1 enzyme (4.8 U) in a buffer consisting of 44.4 mM tris-HCl, 5.28 mM MgCl2, 2.64 mM DTT and 0.044% Tween 20 (pH 7.8). After adding the cAMP enzyme substrate (final concentration 40 nM), the mixture was incubated for 30 minutes at room temperature. Then a fluorescence acceptor (Dye2 marked with cAMP), a fluorescence donor (anti-cAMP antibody marked with a europium cryptate) and the non-specific phosphodiesterase inhibitor IBMX (3-isobutyl-1-methylxanthine; final concentration 1 mM) were added. After 60 min the fluorescence transfer, which correlates with the amount of remaining cAMP, was measured with a microplate reader (Rubystar, BMG) at λex=337 nm, λem=620 nm and λem=665 nm. The enzyme activity was calculated from the quotient formed from the measured signal at 665 nm and that at 620 nm. The result was expressed as the percentage inhibition of enzyme activity of the control (without PDE4 inhibitor). The enzyme was omitted for measurement of the basal control.
[N. Saldou et al., Comparison of recombinant human PDE4 isoforms: interaction with substrate and inhibitors, Cell. Signal. Vol. 10, No. 6, 427-440, 1998]. Several compounds according to the invention are tested in the above-described assay.

Chain of human PDE4B1 (Q07343 whole entry): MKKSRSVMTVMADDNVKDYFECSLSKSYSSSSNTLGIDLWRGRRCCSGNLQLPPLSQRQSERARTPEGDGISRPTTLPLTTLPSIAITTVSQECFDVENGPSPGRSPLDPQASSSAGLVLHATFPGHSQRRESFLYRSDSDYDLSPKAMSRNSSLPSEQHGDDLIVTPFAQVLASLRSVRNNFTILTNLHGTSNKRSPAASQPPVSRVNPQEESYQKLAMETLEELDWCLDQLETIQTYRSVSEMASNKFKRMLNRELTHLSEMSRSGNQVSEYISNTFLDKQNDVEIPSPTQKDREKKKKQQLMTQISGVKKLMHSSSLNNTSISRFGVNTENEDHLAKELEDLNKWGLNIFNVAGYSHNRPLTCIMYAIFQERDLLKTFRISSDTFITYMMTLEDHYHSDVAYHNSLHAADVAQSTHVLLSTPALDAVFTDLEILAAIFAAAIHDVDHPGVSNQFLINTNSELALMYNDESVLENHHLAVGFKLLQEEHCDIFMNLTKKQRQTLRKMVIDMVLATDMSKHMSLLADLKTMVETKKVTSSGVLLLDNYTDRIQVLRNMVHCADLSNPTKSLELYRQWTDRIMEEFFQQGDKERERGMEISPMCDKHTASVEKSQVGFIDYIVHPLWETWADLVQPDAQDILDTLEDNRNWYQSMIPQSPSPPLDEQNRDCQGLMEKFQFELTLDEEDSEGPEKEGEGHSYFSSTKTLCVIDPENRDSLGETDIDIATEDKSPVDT

| IC50 [µM] | Compound |
| --- | --- |
| < 0.1 | COc1ccc(-c2cnc(N3CC4(CC4)c4ccc(C(=O)N5CCOCC5)cc43)nc2)c(F)c1 [Compound 17, [1-[5-(2-Fluoro-4-methoxy-phenyl)-pyrimidin-2-yl]-spiro[1,2-dihydro-indole-3,1′-cyclopropane]-6-yl]-morpholin-4-yl-methanone] |
| 1 to 10 | O=C(O)C1CCN(C(=O)c2ccc3c(c2)N(c2ncc(-c4ccccc4F)cn2)CC32CC2)CC1 [Compound 215, 1-[1-[5-(2-Fluorophenyl)-pyrimidin-2-yl]-spiro[1,2-dihydro-indole-3,1′-cyclopropane]-6-carbonyl]-piperidine-4-carboxylic acid] |
| < 0.1 | COc1ccc(F)c(-c2cnc(N3CC4(CC4)c4ccc(C(=O)N5CCOCC5)cc43)nc2)c1 [Compound 16, [1-[5-(2-Fluoro-5-methoxy-phenyl)-pyrimidin-2-yl]-spiro[1,2-dihydro-indole-3,1′-cyclopropane]-6-yl]-morpholin-4-yl-methanone] |
| < 0.1 | O=C1CN(C(=O)c2ccc3c(c2)N(c2ncc(-c4cccnc4F)cn2)CC32CC2)CCN1 [Compound 176, 4-[1-[5-(2-Fluoro-pyridin-3-yl)-pyrimidin-2-yl]-spiro[1,2-dihydro-indole-3,1′-cyclopropane]-6-carbonyl]-piperazin-2-one] |
| < 0.1 | O=C(c1ccc2c(c1)N(c1ncc(-c3ccc(F)cc3F)cn1)CC21CC1)N1CCOCC1 [Compound 8, [1-[5-(2,4-Difluoro-phenyl)-pyrimidin-2-yl]-spiro[1,2-dihydro-indole-3,1′-cyclopropane]-6-yl]-morpholin-4-yl-methanone] |
| 0.1 to 1 | O=C(c1ccc2c(c1)N(c1ncc(-c3ccccc3F)cn1)CC21CC1)N1CCC2(COC2)C1 [Compound 68, [1-[5-(2-Fluorophenyl)-pyrimidin-2-yl]-spiro[1,2-dihydro-indole-3,1′-cyclopropane]-6-yl]-(2-oxa-7-azaspiro[3.4]octan-7-yl)-methanone] |
| 0.1 to 1 | COc1ccc(C(N)=O)c(-c2cnc(N3CC4(CC4)c4ccc(C(=O)N5CCOCC5)cc43)nc2)c1 [Compound 113, 4-Methoxy-2-[2-[6-(morpholine-4-carbonyl)-spiro[1,2-dihydro-indole-3,1′-cyclopropane]-1-yl]-pyrimidin-5-yl]-benzamide] |
| 1 to 10 | N-[(3R)-1-[1-(5-Phenyl-pyrimidin-2-yl)-spiro[1,2-di-hydro-indole-3,1′-cyclopropane]-6-carbonyl]-pyrrolidin-3-yl]-acetamide [Compound 203] |

Further lines, the compound ahead of its results:

| Compound | IC50 [µM] |
| --- | --- |
| CS(=O)(=O)c1ccccc1-c1cnc(N2CC3(CC3)c3ccc(C(=O)N4CCOCC4)cc32)nc1 [Compound 28, [1-[5-(2-Methylsulfonyl-phenyl)-pyrimidin-2-yl]-spiro[1,2-dihydro-indole-3,1′-cyclopropane]-6-yl]-morpholin-4-yl-methanone] | 0.1 to 1 |
| COc1cccc(F)c1-c1cnc(N2CC3(CC3)c3ccc(C(=O)N4CCOCC4)cc32)nc1 [Compound 19, [1-[5-(2-Fluoro-6-methoxy-phenyl)-pyrimidin-2-yl]-spiro[1,2-dihydro-indole-3,1′-cyclopropane]-6-yl]-morpholin-4-yl-methanone] | 0.1 to 1 |
| Cc1cc(-c2cnc(N3CC4(CC4)c4ccc(C(=O)N(C)CCO)cc43)nc2)ccn1 [Compound 214, N-(2-Hydroxy-ethyl)-N-methyl-1-[5-(2-methyl-pyridin-4-yl)-pyrimidin-2-yl]-spiro[1,2-dihydro-indole-3,1′-cyclopropane]-6-carboxylic acid amide] | < 0.1 |
| N[C@H]1CCN(C(=O)c2ccc3c(c2)N(c2ncc(-c4ccccc4F)cn2)CC32CC2)C1 [Compound 115, [(3S)-3-Amino-pyrrolidin-1-yl]-[1-[5-(2-fluorophenyl)-pyrimidin-2-yl]-spiro[1,2-dihydro-indole-3,1′-cyclopropane]-6-yl]-methanone] | < 0.1 |
| O=C(c1ccc2c(c1)N(c1ncc(-c3ccccc3F)cn1)CC21CC1)N1CCNCC1 [Compound 5, [1-[5-(2-Fluorophenyl)-pyrimidin-2-yl]-spiro[1,2-dihydro-indole-3,1′-cyclopropane]-6-yl]-piperazin-1-yl-methanone] | < 0.1 |
| COC1CCN(C(=O)c2ccc3c(c2)N(c2ncc(-c4ccccc4F)cn2)CC32CC2)CC1 [Compound 100, [1-[5-(2-Fluorophenyl)-pyrimidin-2-yl]-spiro[1,2-dihydro-indole-3,1′-cyclopropane]-6-yl]-(4-methoxy-piperidin-1-yl)-methanone] | 0.1 to 1 |
| CN(C)[C@@H]1CCN(C(=O)c2ccc3c(c2)N(c2ncc(-c4ccccc4F)cn2)CC32CC2)C1 [Compound 77, [(3R)-3-Dimethylamino-pyrrolidin-1-yl]-[1-[5-(2-fluorophenyl)-pyrimidin-2-yl]-spiro[1,2-dihydro-indole-3,1′-cyclopropane]-6-yl]-methanone] | 0.1 to 1 |
| O=C(c1ccc2c(c1)N(c1ncc(-c3ccccc3C(F)F)cn1)CC21CC1)N1CCOCC1 [Compound 39, [1-[5-[2-(Difluoro-methyl)-phenyl]-pyrimidin-2-yl]spiro[1,2-dihydro-indole-3,1′-cyclopropane]-6-yl]-morpholin-4-yl-methanone] | 0.1 to 1 |
| CNC(=O)c1ccc2c(c1)N(c1ncc(-c3ccccc3F)cn1)CC21CC1 [Compound 61, 1-[5-(2-Fluorophenyl)-pyrimidin-2-yl]-N-methyl-spiro[1,2-dihydro-indole-3,1′-cyclopropane]-6-carboxylic acid amide] | 0.1 to 1 |
| Cn1cc(-c2cnc(N3CC4(CC4)c4ccc(C(=O)N5CC[C@@H](N)C5)cc43)nc2)cn1 [Compound 173, [(3R)-3-Amino-pyrrolidin-1-yl]-[1-[5-(1-methyl-1H-pyrazol-4-yl)-pyrimidin-2-yl]-spiro[1,2-dihydro-indole-3,1′-cyclopropane]-6-yl]-methanone] | < 0.1 |
| Cc1ccccc1-c1cnc(N2CC3(CC3)c3ccc(C(=O)N4CCOCC4)cc32)nc1 [Compound 12, Morpholin-4-yl-[1-(5-o-tolyl-pyrimidin-2-yl)-spiro[1,2-dihydro-indole-3,1′-cyclopropane]-6-yl]-methanone] | < 0.1 |
| O=C(c1ccc2c(c1)N(c1ncc(-c3ccccc3F)cn1)CC21CC1)N1CCOCC1 [Compound 1, [1-[5-(2-Fluorophenyl)-pyrimidin-2-yl]-spiro[1,2-dihydro-indole-3,1′-cyclopropane]-6-yl]-morpholin-4-yl-methanone] | < 0.1 |
| CS(=O)(=O)c1ccc(-c2cnc(N3CC4(CC4)c4ccc(C(=O)N5CCOCC5)cc43)nc2)c(F)c1 [Compound 29, [1-[5-(2-Fluoro-4-methylsulfonyl-phenyl)-pyrimidin-2-yl]-spiro[1,2-dihydro-indole-3,1′-cyclopropane]-6-yl]morpholin-4-yl-methanone] | < 0.1 |
| CC(C)(O)c1ccc(-c2cnc(N3CC4(CC4)c4ccc(C(=O)N5CCOCC5)cc43)nc2)s1 [Compound 207, [1-[5-[5-(1-Hydroxy-1-methyl-ethyl)-thiophen-2-yl]-pyrimidin-2-yl]-spiro[1,2-dihydro-indole-3,1′-cyclopropane]-6-yl]-morpholin4--yl-methanone] | < 0.1 |
| Morpholin-4-yl-[1-(5-pyridazin-3-yl-pyrimidin-2-yl)-spiro[1,2-di-hydro-indole-3,1′-cyclopropane]-6-yl]-methanone [Compound 191] | < 0.1 |
